Results published in PubChem BioAssay (NCI).
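GI50 = concentration required for 50% inhibition of growth. TGI denotes the concentration required for complete inhibition of growth.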

Legend:
Experiment in all cases: growth of human tumour cells (NCI), 384-well format
HS 578T breast = tested on: HS 578T breast
SK-MEL-2 melanoma = tested on: SK-MEL-2 melanoma
SW-620 colon = tested on: SW-620 colon
HOP-92 NSCLC = tested on: HOP-92 NSCLC
UACC-62 melanoma = tested on: UACC-62 melanoma
MDA-MB-435 melanoma = tested on: MDA-MB-435 melanoma
OVCAR-3 ovarian = tested on: OVCAR-3 ovarian
HCT-116 colon = tested on: HCT-116 colon
MCF7 breast = tested on: MCF7 breast
OVCAR-8 ovarian = tested on: OVCAR-8 ovarian
MDA-MB-468 breast = tested on: MDA-MB-468 breast
OVCAR-5 ovarian = tested on: OVCAR-5 ovarian
SF-268 CNS = tested on: SF-268 CNS

COc1cc(C)[nH]c(=O)c1CNC(=O)c1c(C)n([C@H](C)C2CCN(CC(F)(F)F)CC2)c2ccccc12
GI50 (HS 578T breast): 40.1 µM
TGI (HS 578T breast): > 100 µM
GI50 (SK-MEL-2 melanoma): 38.6 µM
TGI (SK-MEL-2 melanoma): > 100 µM
GI50 (SW-620 colon): 52 µM
TGI (SW-620 colon): > 91.9 µM
GI50 (HOP-92 NSCLC): 45.7 µM
TGI (HOP-92 NSCLC): > 100 µM
GI50 (UACC-62 melanoma): 37.9 µM
TGI (UACC-62 melanoma): > 100 µM
GI50 (MDA-MB-435 melanoma): 58.6 µM
TGI (MDA-MB-435 melanoma): > 100 µM
GI50 (OVCAR-3 ovarian): 34.2 µM
TGI (OVCAR-3 ovarian): > 96.5 µM
GI50 (HCT-116 colon): 66.8 µM
TGI (HCT-116 colon): > 100 µM
GI50 (MCF7 breast): 27.3 µM
TGI (MCF7 breast): > 100 µM
GI50 (OVCAR-8 ovarian): > 96 µM
TGI (OVCAR-8 ovarian): > 100 µM
GI50 (MDA-MB-468 breast): 21.4 µM
TGI (MDA-MB-468 breast): 51.3 µM
GI50 (OVCAR-5 ovarian): > 100 µM
TGI (OVCAR-5 ovarian): > 100 µM
GI50 (SF-268 CNS): 39.6 µM
TGI (SF-268 CNS): > 68.2 µM
